Key:
[1] = target: Sodium-dependent serotonin transporter (Homo sapiens, UniProt P31645); assay: Displacement of [3H]citalopram from human recombinant SERT scintillation proximity assay
[2] = target: Sodium-dependent noradrenaline transporter (Homo sapiens, UniProt P23975); assay: Displacement of [3H]nisoxetine from human recombinant NET by scintillation proximity assay
[3] = target: Sodium-dependent dopamine transporter (Homo sapiens, UniProt Q01959); assay: Displacement of [3H]WIN-35428 from human recombinant DAT by scintillation proximity assay
[4] = system: Liver microsomes; assay: Intrinsic clearance in human liver microsomes assessed per mg of protein at 0.5 uM for 30 mins by HPLC-MS/MS analysis in presence of NADPH; type: ADME, Microsome; details: 0.5 h
[5] = system: Liver microsomes; assay: Intrinsic clearance in rat liver microsomes assessed per mg of protein at 0.5 uM for 30 mins by HPLC-MS/MS analysis in presence of NADPH; type: ADME, Microsome; details: 0.5 h
[6] = Oral bioavailability in rat; type: ADME, organism-based; details: in vivo
[7] = Volume of distribution in rat; type: ADME, organism-based; details: in vivo
[8] = Blood clearance in rat; type: ADME, organism-based
[9] = Half life in rat; type: ADME, organism-based; details: in vivo
[10] = Ratio of drug level in brain to blood in rat after 1 hr; type: ADME, tissue-based; details: read-out: BBR
[11] = Oral absorption in rat; type: ADME, organism-based; details: in vivo
[12] = target: T1, Cytochrome P450 1A2 (Homo sapiens, UniProt P05177); assay: Inhibition of human CYP1A2 incubated for 10 mins before substrate addition by fluorescence assay
T1 sequence (P05177 whole entry): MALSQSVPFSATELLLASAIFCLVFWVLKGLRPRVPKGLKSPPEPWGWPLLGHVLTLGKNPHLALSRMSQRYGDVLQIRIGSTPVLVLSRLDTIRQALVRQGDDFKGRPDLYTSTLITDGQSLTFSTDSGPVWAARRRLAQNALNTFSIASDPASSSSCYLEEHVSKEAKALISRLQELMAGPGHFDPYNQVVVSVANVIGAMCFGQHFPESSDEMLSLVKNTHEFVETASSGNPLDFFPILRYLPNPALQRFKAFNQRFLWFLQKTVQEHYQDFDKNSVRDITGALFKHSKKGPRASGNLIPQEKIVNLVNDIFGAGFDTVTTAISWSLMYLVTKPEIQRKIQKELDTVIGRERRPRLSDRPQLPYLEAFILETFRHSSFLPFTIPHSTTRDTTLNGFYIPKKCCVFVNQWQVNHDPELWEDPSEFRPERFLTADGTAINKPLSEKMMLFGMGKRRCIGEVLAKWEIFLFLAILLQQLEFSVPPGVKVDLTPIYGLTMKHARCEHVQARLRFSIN

[13] = target: Cytochrome P450 2C9 (Homo sapiens, UniProt P11712); assay: Inhibition of human CYP2C9 incubated for 10 mins before substrate addition by fluorescence assay
[14] = target: Cytochrome P450 2C19 (Homo sapiens, UniProt P33261); assay: Inhibition of human CYP2C19 incubated for 10 mins before substrate addition by fluorescence assay
[15] = target: Cytochrome P450 2D6 (Homo sapiens, UniProt P10635); assay: Inhibition of human CYP2D6 incubated for 10 mins before substrate addition by fluorescence assay
[16] = target: Cytochrome P450 3A4 (Homo sapiens, UniProt P08684); assay: Inhibition of human CYP3A4 incubated for 10 mins before substrate addition by fluorescence assay
[17] = Hepatic extraction ratio in rat; details: in vivo

Chain of Sodium-dependent dopamine transporter (Q01959 whole entry): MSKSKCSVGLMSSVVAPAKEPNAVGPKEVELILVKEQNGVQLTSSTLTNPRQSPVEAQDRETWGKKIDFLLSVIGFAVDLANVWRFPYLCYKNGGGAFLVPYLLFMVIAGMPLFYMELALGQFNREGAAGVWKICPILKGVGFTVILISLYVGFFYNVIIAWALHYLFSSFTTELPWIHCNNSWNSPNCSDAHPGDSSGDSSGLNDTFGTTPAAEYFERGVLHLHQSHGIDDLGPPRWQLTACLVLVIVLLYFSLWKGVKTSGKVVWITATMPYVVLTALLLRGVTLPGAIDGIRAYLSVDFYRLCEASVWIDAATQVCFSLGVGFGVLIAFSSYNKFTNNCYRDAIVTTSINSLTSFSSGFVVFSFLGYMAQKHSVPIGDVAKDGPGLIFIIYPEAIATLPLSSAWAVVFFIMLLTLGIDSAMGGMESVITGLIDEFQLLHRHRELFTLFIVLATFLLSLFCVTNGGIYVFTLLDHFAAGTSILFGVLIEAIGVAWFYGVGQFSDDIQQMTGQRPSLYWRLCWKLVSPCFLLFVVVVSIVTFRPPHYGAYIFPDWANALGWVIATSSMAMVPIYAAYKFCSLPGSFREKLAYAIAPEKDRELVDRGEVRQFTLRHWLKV
Chain of Sodium-dependent serotonin transporter (P31645 whole entry): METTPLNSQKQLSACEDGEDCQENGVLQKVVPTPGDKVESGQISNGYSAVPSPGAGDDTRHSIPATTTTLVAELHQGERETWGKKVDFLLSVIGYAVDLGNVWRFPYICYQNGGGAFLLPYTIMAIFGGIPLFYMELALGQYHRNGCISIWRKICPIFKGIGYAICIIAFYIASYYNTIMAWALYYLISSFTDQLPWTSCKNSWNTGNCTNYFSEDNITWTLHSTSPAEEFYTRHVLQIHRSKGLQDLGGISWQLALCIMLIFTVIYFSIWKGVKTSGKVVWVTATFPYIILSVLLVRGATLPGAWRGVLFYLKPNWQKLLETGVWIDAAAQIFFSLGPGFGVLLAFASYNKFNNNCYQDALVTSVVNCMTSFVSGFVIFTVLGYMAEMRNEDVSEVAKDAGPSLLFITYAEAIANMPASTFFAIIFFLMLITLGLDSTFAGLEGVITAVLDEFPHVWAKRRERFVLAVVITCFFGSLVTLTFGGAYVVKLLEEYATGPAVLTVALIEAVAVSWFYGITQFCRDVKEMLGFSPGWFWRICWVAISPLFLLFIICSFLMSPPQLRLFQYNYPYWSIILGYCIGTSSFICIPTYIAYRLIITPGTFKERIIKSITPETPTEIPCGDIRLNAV
Chain of Cytochrome P450 3A4 (P08684 whole entry): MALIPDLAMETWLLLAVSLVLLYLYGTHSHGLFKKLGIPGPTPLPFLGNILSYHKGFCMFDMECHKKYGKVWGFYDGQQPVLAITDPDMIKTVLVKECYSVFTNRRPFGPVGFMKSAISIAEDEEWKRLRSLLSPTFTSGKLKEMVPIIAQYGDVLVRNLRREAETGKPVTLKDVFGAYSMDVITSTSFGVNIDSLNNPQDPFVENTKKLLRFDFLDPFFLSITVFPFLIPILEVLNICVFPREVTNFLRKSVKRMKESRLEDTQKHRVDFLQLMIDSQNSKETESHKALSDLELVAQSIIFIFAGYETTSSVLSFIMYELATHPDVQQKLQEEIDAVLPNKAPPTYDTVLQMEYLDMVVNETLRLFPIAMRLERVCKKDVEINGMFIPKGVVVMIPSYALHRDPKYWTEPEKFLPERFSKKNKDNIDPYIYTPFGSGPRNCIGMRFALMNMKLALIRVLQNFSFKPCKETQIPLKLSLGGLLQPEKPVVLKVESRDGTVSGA
Chain of Cytochrome P450 2C9 (P11712 whole entry): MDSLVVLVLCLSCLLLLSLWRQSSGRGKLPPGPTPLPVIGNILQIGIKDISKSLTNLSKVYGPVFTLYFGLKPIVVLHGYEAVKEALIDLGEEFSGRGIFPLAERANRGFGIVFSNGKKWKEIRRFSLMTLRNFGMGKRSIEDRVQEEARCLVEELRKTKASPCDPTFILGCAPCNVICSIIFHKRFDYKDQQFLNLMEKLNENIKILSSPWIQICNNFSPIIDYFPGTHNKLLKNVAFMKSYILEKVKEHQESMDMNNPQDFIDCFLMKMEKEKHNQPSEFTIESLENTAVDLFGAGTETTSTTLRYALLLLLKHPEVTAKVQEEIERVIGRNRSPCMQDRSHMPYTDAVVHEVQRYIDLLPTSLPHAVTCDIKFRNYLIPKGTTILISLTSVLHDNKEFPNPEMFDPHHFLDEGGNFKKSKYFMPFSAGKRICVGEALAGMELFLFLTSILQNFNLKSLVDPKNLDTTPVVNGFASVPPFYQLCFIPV
Chain of Cytochrome P450 2D6 (P10635 whole entry): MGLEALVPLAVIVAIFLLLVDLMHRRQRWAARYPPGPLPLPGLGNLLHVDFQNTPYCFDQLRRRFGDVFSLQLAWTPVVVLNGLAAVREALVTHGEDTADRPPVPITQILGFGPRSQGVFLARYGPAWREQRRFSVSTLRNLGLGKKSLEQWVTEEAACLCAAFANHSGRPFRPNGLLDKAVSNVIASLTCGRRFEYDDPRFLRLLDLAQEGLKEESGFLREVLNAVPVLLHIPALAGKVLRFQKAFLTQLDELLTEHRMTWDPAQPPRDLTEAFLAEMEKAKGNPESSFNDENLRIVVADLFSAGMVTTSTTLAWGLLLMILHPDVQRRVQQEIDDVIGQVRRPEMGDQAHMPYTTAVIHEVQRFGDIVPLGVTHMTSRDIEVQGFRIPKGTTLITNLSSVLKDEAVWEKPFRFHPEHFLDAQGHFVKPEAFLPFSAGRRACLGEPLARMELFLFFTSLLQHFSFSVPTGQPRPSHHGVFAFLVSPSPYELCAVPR
Chain of Sodium-dependent noradrenaline transporter (P23975 whole entry): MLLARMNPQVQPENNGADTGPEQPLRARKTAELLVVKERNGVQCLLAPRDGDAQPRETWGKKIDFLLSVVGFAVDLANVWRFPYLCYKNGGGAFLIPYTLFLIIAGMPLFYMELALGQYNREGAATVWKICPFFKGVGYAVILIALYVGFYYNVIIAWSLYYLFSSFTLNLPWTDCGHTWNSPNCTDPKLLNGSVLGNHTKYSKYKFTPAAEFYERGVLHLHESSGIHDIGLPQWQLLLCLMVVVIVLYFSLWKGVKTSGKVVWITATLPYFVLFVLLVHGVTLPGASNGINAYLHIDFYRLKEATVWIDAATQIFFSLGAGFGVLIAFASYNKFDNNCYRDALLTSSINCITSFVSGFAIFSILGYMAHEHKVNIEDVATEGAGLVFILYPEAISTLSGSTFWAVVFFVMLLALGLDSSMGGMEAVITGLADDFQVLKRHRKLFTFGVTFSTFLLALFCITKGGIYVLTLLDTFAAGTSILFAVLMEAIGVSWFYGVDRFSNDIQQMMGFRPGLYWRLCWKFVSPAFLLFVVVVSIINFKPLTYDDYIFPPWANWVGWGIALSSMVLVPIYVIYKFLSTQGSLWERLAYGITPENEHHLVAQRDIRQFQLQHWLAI
Chain of Cytochrome P450 2C19 (P33261 whole entry): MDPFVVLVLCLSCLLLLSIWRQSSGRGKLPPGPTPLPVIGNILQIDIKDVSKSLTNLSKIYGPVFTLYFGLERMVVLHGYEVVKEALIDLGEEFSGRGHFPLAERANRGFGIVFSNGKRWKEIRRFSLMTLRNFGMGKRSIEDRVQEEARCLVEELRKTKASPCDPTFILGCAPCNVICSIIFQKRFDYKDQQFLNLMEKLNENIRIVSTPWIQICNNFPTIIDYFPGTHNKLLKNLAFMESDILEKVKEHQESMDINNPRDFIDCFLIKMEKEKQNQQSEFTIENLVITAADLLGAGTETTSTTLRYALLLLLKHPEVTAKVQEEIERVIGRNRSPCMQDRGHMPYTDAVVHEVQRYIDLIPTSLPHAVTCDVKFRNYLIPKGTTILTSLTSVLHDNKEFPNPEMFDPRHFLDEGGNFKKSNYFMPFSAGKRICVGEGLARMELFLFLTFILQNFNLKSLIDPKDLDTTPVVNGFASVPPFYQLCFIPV

SMILES: Clc1ccc([C@]23CCNCC2(Cn2ncc4ccccc42)C3)cc1Cl (stereo partly specified)
- Ki [1]: 0.251 nM
- Ki [2]: 50.1 nM
- Ki [3]: 15.8 nM

SMILES: Cc1ccn(CC23CNCC[C@]2(c2ccc(Cl)c(Cl)c2)C3)c1 (stereo partly specified)
- Ki [1]: 0.501 nM
- Ki [2]: 39.8 nM
- Ki [3]: 31.6 nM

SMILES: Clc1ccc([C@]23CCNCC2(Cn2ccc4ccccc42)C3)cc1Cl (stereo partly specified)
- Ki [1]: 1.26 nM
- Ki [2]: 63.1 nM
- Ki [3]: 20 nM

SMILES: Clc1ccc([C@]23CCNCC2(Cn2cc4ccccc4n2)C3)cc1Cl (stereo partly specified)
- Ki [1]: 0.2 nM
- Ki [2]: 50.1 nM
- Ki [3]: 3.98 nM

SMILES: Cc1cnc([C@@]23CNCC[C@]2(c2ccc(Cl)c(Cl)c2)C3)o1 (racemic)
- Ki [1]: 6.31 nM
- Ki [2]: 6.31 nM
- Ki [3]: 1 nM

SMILES: Cc1csc([C@@]23CNCC[C@]2(c2ccc(Cl)c(Cl)c2)C3)n1 (racemic)
- Ki [1]: 0.501 nM
- Ki [2]: 0.398 nM
- Ki [3]: 0.158 nM

SMILES: Cc1cc([C@@]23CNCC[C@]2(c2ccc(Cl)c(Cl)c2)C3)no1 (racemic)
- Ki [1]: 7.94 nM
- Ki [2]: 39.8 nM
- Ki [3]: 2 nM

SMILES: Cc1noc([C@@]23CNCC[C@]2(c2ccc(Cl)c(Cl)c2)C3)n1 (racemic)
- Ki [1]: 7.94 nM
- Ki [2]: 31.6 nM
- Ki [3]: 0.794 nM

SMILES: Cc1csc(C[C@@]23CNCC[C@]2(c2ccc(Cl)c(Cl)c2)C3)n1 (racemic)
- Ki [1]: 0.1 nM
- Ki [2]: 0.631 nM
- Ki [3]: 6.31 nM

SMILES: Cc1coc(C[C@@]23CNCC[C@]2(c2ccc(Cl)c(Cl)c2)C3)n1 (racemic)
- Ki [1]: 2 nM
- Ki [2]: 31.6 nM
- Ki [3]: 63.1 nM

SMILES: Cc1ncoc1C[C@@]12CNCC[C@]1(c1ccc(Cl)c(Cl)c1)C2 (racemic)
- Ki [1]: 3.16 nM
- Ki [2]: 25.1 nM
- Ki [3]: 12.6 nM

SMILES: Cc1cnn(C[C@@]23CNCC[C@]2(c2ccc(Cl)c(Cl)c2)C3)c1 (racemic)
- Ki [1]: 0.794 nM
- Ki [2]: 79.4 nM
- Ki [3]: 126 nM

SMILES: Cc1cc(C)n(C[C@@]23CNCC[C@]2(c2ccc(Cl)c(Cl)c2)C3)n1 (racemic)
- Ki [1]: 0.398 nM
- Ki [2]: 1.58 nM
- Ki [3]: 6.31 nM

SMILES: FC(F)(F)c1ccnn1C[C@@]12CNCC[C@]1(c1ccc(Cl)c(Cl)c1)C2 (racemic)
- Ki [1]: 2 nM
- Ki [2]: 10 nM
- Ki [3]: 1.58 nM

SMILES: FC(F)(F)c1ccn(C[C@@]23CNCC[C@]2(c2ccc(Cl)c(Cl)c2)C3)n1 (racemic)
- Ki [1]: 2 nM
- Ki [2]: 158 nM
- Ki [3]: 25.1 nM

SMILES: N#Cc1ccnn1C[C@@]12CNCC[C@]1(c1ccc(Cl)c(Cl)c1)C2 (racemic)
- Ki [1]: 5.01 nM
- Ki [2]: 31.6 nM
- Ki [3]: 20 nM

SMILES: N#Cc1ccn(C[C@@]23CNCC[C@]2(c2ccc(Cl)c(Cl)c2)C3)n1 (racemic)
- Ki [1]: 1 nM
- Ki [2]: 25.1 nM
- Ki [3]: 25.1 nM

SMILES: Cc1cc(C(F)(F)F)nn1C[C@@]12CNCC[C@]1(c1ccc(Cl)c(Cl)c1)C2 (racemic)
- Ki [1]: 1 nM
- Ki [2]: 25.1 nM
- Ki [3]: 2 nM

SMILES: Cc1cc(C(F)(F)F)n(C[C@@]23CNCC[C@]2(c2ccc(Cl)c(Cl)c2)C3)n1 (racemic)
- Ki [1]: 0.794 nM
- Ki [2]: 10 nM
- Ki [3]: 1.26 nM

SMILES: CC(C)(C)c1ccn(C[C@@]23CNCC[C@]2(c2ccc(Cl)c(Cl)c2)C3)n1 (racemic)
- Ki [1]: 0.251 nM
- Ki [2]: 50.1 nM
- Ki [3]: 6.31 nM

SMILES: Clc1ccc([C@]23CCNC[C@@]2(Cn2cccc2)C3)cc1Cl (racemic)
- Ki [1]: 0.398 nM
- Ki [2]: 10 nM
- Ki [3]: 15.8 nM

SMILES: N#Cc1cccn1C[C@@]12CNCC[C@]1(c1ccc(Cl)c(Cl)c1)C2 (racemic)
- Ki [1]: 2.51 nM
- Ki [2]: 39.8 nM
- Ki [3]: 12.6 nM

SMILES: Cc1ccc(C)n1C[C@@]12CNCC[C@]1(c1ccc(Cl)c(Cl)c1)C2 (racemic)
- Ki [1]: 2.51 nM
- Ki [2]: 20 nM
- Ki [3]: 20 nM

SMILES: Cc1cc(C)n(C[C@@]23CNCC[C@]2(c2ccc(Cl)c(Cl)c2)C3)c1 (racemic)
- Ki [1]: 2 nM
- Ki [2]: 20 nM
- Ki [3]: 7.94 nM

SMILES: Clc1ccc([C@]23CCNC[C@@]2(Cn2cncn2)C3)cc1Cl (racemic)
- Ki [1]: 3.98 nM
- Ki [2]: 100 nM
- Ki [3]: 200 nM

SMILES: Cc1nc(C)n(C[C@@]23CNCC[C@]2(c2ccc(Cl)c(Cl)c2)C3)n1 (racemic)
- Ki [1]: 3.16 nM
- Ki [2]: 39.8 nM
- Ki [3]: 25.1 nM

SMILES: CC(C)c1nnnn1C[C@@]12CNCC[C@]1(c1ccc(Cl)c(Cl)c1)C2 (racemic)
- Ki [1]: 63.1 nM
- Ki [2]: 398 nM
- Ki [3]: 63.1 nM

SMILES: CC(C)c1nnn(C[C@@]23CNCC[C@]2(c2ccc(Cl)c(Cl)c2)C3)n1 (racemic)
- Ki [1]: 0.794 nM
- Ki [2]: 398 nM
- Ki [3]: 25.1 nM

SMILES: Cc1cc(C)n(CC23CNCC[C@]2(c2ccc(Cl)c(Cl)c2)C3)n1 (single isomer, unassigned)
- Ki [1]: 0.2 nM
- Ki [2]: 1 nM
- Ki [3]: 3.16 nM
- CL [4]: 2.4 mL/min/g
- CL [5]: 5.5 mL/min/g
- bioavailability [6]: 6%
- Vd [7]: 6.9 L/kg
- clearance [8]: 52 mL/min/kg
- half-life [9]: 2.3 h
- Kp at 1 h [10]: 0.8
- Fa [11]: 50%

SMILES: Cc1csc(C23CNCC[C@]2(c2ccc(Cl)c(Cl)c2)C3)n1 (single isomer, unassigned; enantiomer 1)
- Ki [1]: 0.398 nM
- Ki [2]: 0.398 nM
- Ki [3]: 0.2 nM
- IC50 [12]: > 6000 nM
- IC50 [13]: > 6000 nM
- IC50 [14]: > 6000 nM
- IC50 [15]: > 6000 nM
- IC50 [16]: > 6000 nM
- CL [4]: 2.6 mL/min/g
- CL [5]: 5.4 mL/min/g

SMILES: Cc1ccn(CC23CNCC[C@]2(c2ccc(Cl)c(Cl)c2)C3)n1 (single isomer, unassigned; enantiomer 1)
- Ki [1]: 20 nM
- Ki [2]: 1000 nM
- Ki [3]: 316 nM

SMILES: Cc1cc(C)n(CC23CNCC[C@]2(c2ccc(Cl)c(Cl)c2)C3)n1 (single isomer, unassigned; enantiomer 1)
- Ki [1]: 15.8 nM
- Ki [2]: 501 nM
- Ki [3]: 158 nM

SMILES: N#Cc1ccn(CC23CNCC[C@]2(c2ccc(Cl)c(Cl)c2)C3)c1 (single isomer, unassigned; enantiomer 1)
- Ki [1]: 0.631 nM
- Ki [2]: 31.6 nM
- Ki [3]: 12.6 nM

SMILES: Cc1nc(C)n(CC23CNCC[C@]2(c2ccc(Cl)c(Cl)c2)C3)n1 (single isomer, unassigned; enantiomer 1)
- Ki [1]: 2 nM
- Ki [2]: 25.1 nM
- Ki [3]: 15.8 nM
- IC50 [12]: > 25000 nM
- IC50 [13]: > 25000 nM
- IC50 [14]: > 25000 nM
- IC50 [15]: > 25000 nM
- IC50 [16]: > 25000 nM
- bioavailability [6]: 17%
- Vd [7]: 8.1 L/kg
- clearance [8]: 63 mL/min/kg
- half-life [9]: 1.7 h
- Kp at 1 h [10]: 0.4
- Fa [11]: 94%
- hepatic extraction ratio [17]: 0.8

SMILES: Cc1ccnn1CC12CNCC[C@]1(c1ccc(Cl)c(Cl)c1)C2 (single isomer, unassigned; enantiomer 2)
- Ki [1]: 0.794 nM
- Ki [2]: 1.58 nM
- Ki [3]: 3.16 nM
- IC50 [12]: > 10000 nM
- IC50 [13]: > 10000 nM
- IC50 [14]: > 10000 nM
- IC50 [15]: > 10000 nM
- IC50 [16]: > 10000 nM
- CL [4]: 2.5 mL/min/g
- CL [5]: 2.6 mL/min/g

SMILES: Cc1ccn(CC23CNCC[C@]2(c2ccc(Cl)c(Cl)c2)C3)n1 (stereo in doubt)
- Ki [1]: 0.251 nM
- Ki [2]: 3.16 nM
- Ki [3]: 15.8 nM
- IC50 [12]: > 10000 nM
- IC50 [13]: > 10000 nM
- IC50 [14]: > 10000 nM
- IC50 [15]: > 10000 nM
- IC50 [16]: > 10000 nM

SMILES: Cc1csc(C23CNCC[C@]2(c2ccc(Cl)c(Cl)c2)C3)n1 (stereo in doubt; 7)
- Ki [1]: 15.8 nM
- Ki [2]: 31.6 nM
- Ki [3]: 20 nM

SMILES: Cc1ccnn1CC12CNCC[C@]1(c1ccc(Cl)c(Cl)c1)C2 (stereo in doubt; 16)
- Ki [1]: 20 nM
- Ki [2]: 316 nM
- Ki [3]: 100 nM

SMILES: Cc1nc(C)n(CC23CNCC[C@]2(c2ccc(Cl)c(Cl)c2)C3)n1 (stereo in doubt; 38)
- Ki [1]: 39.8 nM
- Ki [2]: 1580 nM
- Ki [3]: 200 nM
